# Earlier results as cited in patent US10481151B2, “Isolation of pulmonary arterial endothelial cells from patients with pulmonary vascular disease and uses thereof” (Allegheny-Singer Research Institute, priority 2012, dated 2019).
# Details: short half life, so the drug must be administered intravenously over a prolonged time frame
row,half life,Compound
1,about 6 minutes,CCCCC[C@H](O)CC[C@@H]1[C@H]2Cc3cccc(OCC(=O)O)c3C[C@H]2C[C@H]1O [treprostinil]
2,about 6 minutes,CCCCC[C@H](O)/C=C/[C@@H]1[C@H]2C/C(=C/CCCC(=O)O)O[C@H]2C[C@H]1O [epoprostenol]
3,about 6 minutes,CC#CCC(C)[C@H](O)/C=C/[C@@H]1[C@H]2C/C(=C/CCCC(=O)O)C[C@H]2C[C@H]1O (stereo partly drawn) [iloprost]
